Columns and labels:
[1] = molecular target: T1, human soluble epoxide hydrolase (hsEH) (Homo sapiens, UniProt P34913); experiment: single-injection ITC enzyme kinetics (KM; saturation not reached); assay type: biochemical
T1 construct: gene EPHX2; C-terminal domain (CTD)
T1 sequence (P34913 230-555 limits assumed): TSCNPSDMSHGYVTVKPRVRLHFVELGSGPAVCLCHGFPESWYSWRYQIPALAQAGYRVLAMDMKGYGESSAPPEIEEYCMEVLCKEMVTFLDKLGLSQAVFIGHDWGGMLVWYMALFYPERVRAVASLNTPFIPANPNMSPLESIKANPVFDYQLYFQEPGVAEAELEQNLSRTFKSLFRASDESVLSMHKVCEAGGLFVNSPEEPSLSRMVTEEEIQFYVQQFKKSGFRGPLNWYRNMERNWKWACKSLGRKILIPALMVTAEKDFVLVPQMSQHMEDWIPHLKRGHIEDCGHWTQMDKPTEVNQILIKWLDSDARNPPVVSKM

[2] = molecular target: T1, human soluble epoxide hydrolase (hsEH); experiment: single-injection ITC enzyme kinetics (KM); assay type: biochemical

| Km [1] [µM] | Km [2] [µM] | Structure (SMILES) |
| --- | --- | --- |
| – | 9.74 ± 0.13 | CC/C=C\C/C=C\C/C=C\CC1OC1C/C=C\CCCC(=O)O (stereo not shown) [8(9)EpETE] |
| – | 26.4 ± 4.05 | CCC1OC1C/C=C\C/C=C\C/C=C\C/C=C\CCCC(=O)O (stereo not shown) [17(18)EpETE] |
| – | 26.6 ± 1.21 | CCC1OC1C/C=C\C/C=C\C/C=C\C/C=C\C/C=C\CCC(=O)O (stereo not shown) [19(20)EpDPE] |

Further lines, the compound ahead of its results:

| Structure (SMILES) | Km [1] [µM] | Km [2] [µM] |
| --- | --- | --- |
| CCCCC/C=C\C/C=C\C/C=C\CC1OC1CCCC(=O)O (stereo not shown) [5(6)EET] | 46.6 ± 11 | – |
| CCCCC/C=C\C/C=C\CC1OC1C/C=C\CCCC(=O)O (stereo not shown) [8(9)EET] | – | 23.1 ± 2.39 |
| CCCCC/C=C\CC1OC1C/C=C\C/C=C\CCCC(=O)O (stereo not shown) [11(12)EET] | – | 1.74 ± 0.2 |
| CCCCCC1OC1C/C=C\C/C=C\C/C=C\CCCC(=O)O (stereo not shown) [14(15)EET] | – | 12.9 ± 1.94 |
